Experiments:
CgLOG (Cg2612) [1] = biological target: T1, CgLOG (Cg2612) (Corynebacterium glutamicum, UniProt Q8NN34, S19A); assay: phosphoribohydrolase assay, TLC with UV detection of adenine; type: biochemical; conditions: 20 mM AMP, 36 mM Tris-HCl pH 8.0, 30 °C, 23 μM enzyme
T1 construct: gene Cgl2379; full-length, C-terminal 6xHis (pET30a), E. coli BL21(DE3); dimer; residues 2-195 seen in crystal; active site at dimer interface

CgLOG (Cg2612) [2] = biological target: T2, CgLOG (Cg2612) (Corynebacterium glutamicum, UniProt Q8NN34); assay: as above; type: biochemical; conditions: 20 mM AMP, 36 mM Tris-HCl pH 8.0, 30 °C, 23 μM enzyme
T2 construct: gene Cgl2379; full-length, C-terminal 6xHis (pET30a), E. coli BL21(DE3); dimer; residues 2-195 seen in crystal; active site at dimer interface
T2 sequence (Q8NN34 1-195): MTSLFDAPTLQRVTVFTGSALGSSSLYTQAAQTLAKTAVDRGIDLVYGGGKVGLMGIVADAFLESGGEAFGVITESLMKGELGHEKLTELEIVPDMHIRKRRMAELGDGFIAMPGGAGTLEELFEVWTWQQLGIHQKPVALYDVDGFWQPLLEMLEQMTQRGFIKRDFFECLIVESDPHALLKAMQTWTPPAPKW

[3] = biological target: LOG from Corynebacterium glutamicum ATCC 13032 (gene product of Cg2612) (Corynebacterium glutamicum ATCC 13032); assay: SAXS; solution SAXS at 4 °C, CgLOG 0.5 ~ 4.5 mg/ml; molecular mass by the QR method
[4] = biological target: LOG from Corynebacterium glutamicum ATCC 13032 (gene product of Cg2612) (Corynebacterium glutamicum ATCC 13032); assay: SEC; analytical, Superdex 200 10/300, 150 mM NaCl, 300 μL of 3 mg/ml protein; molecular weight from a calibration curve of standards

T1 sequence (Q8NN34 entry or part of it S19A): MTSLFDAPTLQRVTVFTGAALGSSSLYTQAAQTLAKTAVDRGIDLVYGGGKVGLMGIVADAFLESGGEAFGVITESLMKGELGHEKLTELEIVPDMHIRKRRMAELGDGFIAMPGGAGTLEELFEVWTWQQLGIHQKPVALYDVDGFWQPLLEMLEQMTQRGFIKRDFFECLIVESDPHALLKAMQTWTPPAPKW

Row | stoichiometry N [3] | stoichiometry N [4] | Compound | phosphoribohydrolase assay, TLC with UV detection of adenine (CgLOG (Cg2612) [1]) | phosphoribohydrolase assay, TLC with UV detection of adenine (CgLOG (Cg2612) [2])
1 | – | – | Nc1ncnc2c1ncn2[C@@H]1O[C@H](COP(=O)(O)O)[C@@H](O)[C@H]1O [AMP] | One exception is S19A mutant which shows higher activity than the wild-type | we observed that Cg2612 has phosphoribohydrolase activity
2 | 2 | 2 | LOG from Corynebacterium glutamicum ATCC 13032 (gene product of Cg2612) (enzyme) | – | –
